From US9096601B2 (CSPC Zhongqi Pharmaceutical Technology (Shijiazhuang) Co., …, priority 2010, dated 2015)
Like-named read-outs stand apart in the source and are kept apart here.

Legend:
[1] = target: EGFR L858R/T790M double mutant type (Homo sapiens (Human), UniProt P00533, L858R/T790M); test: Kinase inhibitory activity, isotopic labeling (γ-33P-ATP); type: biochemical; details: ATP 45 μM (Km)
Method: (§1) The object of this assay was to test the inventive compounds for the kinase inhibitory activity in vitro. In this assay, an isotopic labeling method was used to label the γ phosphate group on ATP. […] Staurosporine was used as a reference molecule (or referred to as a positive control). […] The IC50 value can be obtained by the calculation of the inhibitory rates at a series of different concentrations of the tested compounds.
(§2) To a reaction tube were successively added the buffer solution (8 mM MOPS, pH 7.0, 0.2 mM EDTA, 10 mM MnCl2), the kinase to be tested (5-10 mU) (EGFR/ALK/BTK/c-KIT/c-SRC/MET/PDGFRα/VEGFR2), the substrate for the kinase to be tested (a reference material), 10 mM of the solution of magnesium acetate and γ-^33 P-ATP, and different concentrations of the tested compounds. […] The reaction was terminated with […] of the 3% phosphate buffer solution. 10 μL of the reaction liquid was titrated on the Filtermat A membrane. The membrane was washed with 75 mM of the phosphate solution thrice (5 minutes each time), and then with methanol once, and finally dried. The membrane was subjected to a scintillation counting. The value of the scintillation counting reflected the phosphorylation level of the substrate and therefore could characterize the inhibition of the kinase activity.

EGFR L858R mutant type = EGFR L858R mutant type (Homo sapiens (Human), UniProt P00533, L858R); test: as above; type: biochemical; details: ATP 200 μM (Km)
Method: as §1, §2

EGFR wild type = EGFR wild type (Homo sapiens (Human), UniProt P00533); test: as above; type: biochemical; details: ATP 10 μM (Km)
Method: as §1, §2

c-SRC = c-SRC (Homo sapiens (Human), UniProt P12931); test: as above; type: biochemical; details: compound at 10 μM
Method: (§3) The object of this assay was to test the inventive compounds for the kinase inhibitory activity in vitro. In this assay, an isotopic labeling method was used to label the γ phosphate group on ATP. EGFR (including wild type, L858R mutant type and L858R/T790M double mutant type), VEGFR2, ALK, BTK, c-KIT, c-SRC, MET, PDGFRα and FLT3 kinases were tested in vitro for the activity inhibition. Staurosporine was used as a reference molecule (or referred to as a positive control). […] The IC50 value can be obtained by the calculation of the inhibitory rates at a series of different concentrations of the tested compounds.
as §2

MET = MET (Homo sapiens (Human), UniProt P08581); test: as above; type: biochemical; details: compound at 10 μM
Method: as §3, §2

VEGFR2 = VEGFR2 (Homo sapiens (Human), UniProt P35968); test: as above; type: biochemical
Method: as §3, §2

BTK = BTK (Homo sapiens (Human), UniProt Q06187); test: as above; type: biochemical; details: compound at 10 μM
Method: as §3, §2

FLT3 = FLT3 (Homo sapiens (Human), UniProt P36888); test: as above; type: biochemical; details: compound at 10 μM
Method: as §3, §2

PDGFRα = PDGFRα (Homo sapiens (Human), UniProt P16234); test: as above; type: biochemical; details: compound at 10 μM
Method: as §3, §2

ALK = ALK (Homo sapiens (Human), UniProt Q9UM73); test: as above; type: biochemical; details: compound at 10 μM
Method: as §3, §2

c-KIT = c-KIT (Homo sapiens (Human), UniProt P10721); test: as above; type: biochemical; details: compound at 10 μM
Method: as §3, §2

[2] = tested on: non-small cell lung carcinoma cell strain H292 (EGFR WT); test: In-vitro tumor cell proliferation inhibition, MTT; type: cell-based, human
[3] = tested on: non-small cell lung carcinoma cell strain HCC827; test: In-vitro tumor cell proliferation inhibition, MTT; type: cell-based, human
Method in brief: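 Cells grown in RPMI-1640 with 10% FBS, seeded overnight (HCC827 at 6×10^4 cells/ml), then exposed to graded compound concentrations for 72 h at 37 °C, 5% CO2, with 1% DMSO solvent control. MTT absorbance at 570 nm; inhibition relative to control; triplicate wells, ≥3 repeats.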

[4] = tested on: non-small cell lung carcinoma cell strain H1975 (EGFR L858R/T790M mutation); test: In-vitro tumor cell proliferation inhibition, MTT; type: cell-based, human
[5] = tested on: non-small cell lung carcinoma cell strain PC-9 (EGFR delE746-A750 deletion mutation); test: In-vitro tumor cell proliferation inhibition, MTT; type: cell-based, human; details: 72 hours

Chain of VEGFR2 (P35968 20-1356): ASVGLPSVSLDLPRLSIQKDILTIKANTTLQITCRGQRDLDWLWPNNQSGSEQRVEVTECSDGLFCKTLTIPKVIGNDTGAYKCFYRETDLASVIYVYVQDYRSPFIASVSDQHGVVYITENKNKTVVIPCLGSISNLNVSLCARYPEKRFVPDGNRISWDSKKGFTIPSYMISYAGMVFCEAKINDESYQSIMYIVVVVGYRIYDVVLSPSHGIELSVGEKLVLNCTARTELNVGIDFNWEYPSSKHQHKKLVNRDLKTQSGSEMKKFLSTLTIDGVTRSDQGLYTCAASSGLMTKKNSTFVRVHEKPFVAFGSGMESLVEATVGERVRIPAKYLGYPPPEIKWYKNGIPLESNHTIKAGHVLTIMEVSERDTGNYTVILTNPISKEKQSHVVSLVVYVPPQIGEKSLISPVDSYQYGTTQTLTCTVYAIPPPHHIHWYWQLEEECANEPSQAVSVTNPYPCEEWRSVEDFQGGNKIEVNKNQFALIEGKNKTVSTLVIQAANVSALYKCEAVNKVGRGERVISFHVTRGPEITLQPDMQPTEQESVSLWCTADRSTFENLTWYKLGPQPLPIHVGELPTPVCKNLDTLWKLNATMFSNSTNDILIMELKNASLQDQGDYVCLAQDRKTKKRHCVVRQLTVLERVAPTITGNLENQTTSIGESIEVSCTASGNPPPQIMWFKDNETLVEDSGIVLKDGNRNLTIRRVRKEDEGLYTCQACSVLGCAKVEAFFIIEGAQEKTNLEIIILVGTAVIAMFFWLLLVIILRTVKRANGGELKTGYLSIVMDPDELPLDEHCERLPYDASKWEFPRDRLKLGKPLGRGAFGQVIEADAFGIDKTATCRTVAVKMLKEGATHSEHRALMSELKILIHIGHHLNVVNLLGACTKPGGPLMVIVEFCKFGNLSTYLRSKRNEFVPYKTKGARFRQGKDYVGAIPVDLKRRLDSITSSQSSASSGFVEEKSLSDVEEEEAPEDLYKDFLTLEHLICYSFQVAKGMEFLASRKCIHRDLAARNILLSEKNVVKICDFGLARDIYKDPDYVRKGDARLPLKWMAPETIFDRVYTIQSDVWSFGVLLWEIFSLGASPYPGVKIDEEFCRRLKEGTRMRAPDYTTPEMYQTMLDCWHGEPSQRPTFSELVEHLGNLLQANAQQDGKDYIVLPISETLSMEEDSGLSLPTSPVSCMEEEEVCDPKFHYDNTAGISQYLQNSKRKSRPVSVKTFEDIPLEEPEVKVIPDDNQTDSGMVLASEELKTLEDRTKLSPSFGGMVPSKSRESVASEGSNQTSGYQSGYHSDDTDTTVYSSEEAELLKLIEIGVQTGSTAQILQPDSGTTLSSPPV
Chain of PDGFRα (P16234 24-1089): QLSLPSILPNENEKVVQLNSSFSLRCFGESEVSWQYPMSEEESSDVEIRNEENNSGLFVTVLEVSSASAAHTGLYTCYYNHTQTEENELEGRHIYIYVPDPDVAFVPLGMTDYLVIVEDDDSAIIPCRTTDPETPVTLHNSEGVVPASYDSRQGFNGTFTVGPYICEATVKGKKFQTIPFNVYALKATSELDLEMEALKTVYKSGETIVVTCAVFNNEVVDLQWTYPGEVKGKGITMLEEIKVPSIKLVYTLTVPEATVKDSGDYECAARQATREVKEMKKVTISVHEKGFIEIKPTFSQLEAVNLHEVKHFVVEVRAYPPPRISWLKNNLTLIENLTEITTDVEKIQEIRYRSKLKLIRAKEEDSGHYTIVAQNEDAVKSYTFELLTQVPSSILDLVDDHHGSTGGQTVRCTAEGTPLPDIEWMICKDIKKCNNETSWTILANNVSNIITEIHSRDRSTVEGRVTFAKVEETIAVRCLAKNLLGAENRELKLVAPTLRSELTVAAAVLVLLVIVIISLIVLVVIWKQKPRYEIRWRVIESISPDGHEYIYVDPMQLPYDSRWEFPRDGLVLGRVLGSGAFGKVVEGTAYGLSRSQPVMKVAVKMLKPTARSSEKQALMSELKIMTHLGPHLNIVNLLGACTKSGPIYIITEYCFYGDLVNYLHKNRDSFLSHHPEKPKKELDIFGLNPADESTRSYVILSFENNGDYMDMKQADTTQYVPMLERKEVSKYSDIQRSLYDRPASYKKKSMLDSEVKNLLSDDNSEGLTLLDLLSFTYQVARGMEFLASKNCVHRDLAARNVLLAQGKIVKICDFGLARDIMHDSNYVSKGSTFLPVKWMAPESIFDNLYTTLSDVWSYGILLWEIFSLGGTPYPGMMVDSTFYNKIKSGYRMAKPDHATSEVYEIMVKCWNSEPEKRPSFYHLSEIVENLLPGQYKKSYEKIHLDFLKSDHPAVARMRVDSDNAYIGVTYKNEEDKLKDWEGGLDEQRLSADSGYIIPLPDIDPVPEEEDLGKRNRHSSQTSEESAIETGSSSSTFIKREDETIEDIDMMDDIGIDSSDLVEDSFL
Chain of FLT3 (P36888 27-993): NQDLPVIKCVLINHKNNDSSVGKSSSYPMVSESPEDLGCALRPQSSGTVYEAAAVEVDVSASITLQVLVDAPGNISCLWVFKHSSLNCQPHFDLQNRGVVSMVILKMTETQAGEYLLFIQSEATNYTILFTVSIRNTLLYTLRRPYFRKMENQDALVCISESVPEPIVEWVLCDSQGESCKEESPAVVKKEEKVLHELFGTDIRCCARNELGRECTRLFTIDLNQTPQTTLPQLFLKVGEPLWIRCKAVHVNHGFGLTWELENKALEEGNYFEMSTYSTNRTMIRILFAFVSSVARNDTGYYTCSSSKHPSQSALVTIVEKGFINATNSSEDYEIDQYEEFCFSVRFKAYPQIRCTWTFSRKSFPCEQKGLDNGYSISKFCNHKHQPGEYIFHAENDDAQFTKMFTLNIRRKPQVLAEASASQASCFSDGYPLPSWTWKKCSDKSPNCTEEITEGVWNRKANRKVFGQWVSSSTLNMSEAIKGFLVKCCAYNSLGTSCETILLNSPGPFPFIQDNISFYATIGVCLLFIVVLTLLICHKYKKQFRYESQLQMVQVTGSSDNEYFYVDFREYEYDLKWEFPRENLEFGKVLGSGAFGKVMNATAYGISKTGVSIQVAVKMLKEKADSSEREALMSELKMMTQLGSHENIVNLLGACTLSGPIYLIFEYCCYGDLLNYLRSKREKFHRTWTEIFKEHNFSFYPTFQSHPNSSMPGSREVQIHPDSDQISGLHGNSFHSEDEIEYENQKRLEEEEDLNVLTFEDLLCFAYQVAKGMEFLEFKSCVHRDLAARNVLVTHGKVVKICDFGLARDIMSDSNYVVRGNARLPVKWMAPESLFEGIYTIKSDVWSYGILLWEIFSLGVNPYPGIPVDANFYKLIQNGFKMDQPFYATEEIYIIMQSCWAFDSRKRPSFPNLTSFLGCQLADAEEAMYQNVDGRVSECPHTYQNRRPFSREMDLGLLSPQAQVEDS
Chain of EGFR L858R mutant type (P00533 25-1210 L858R): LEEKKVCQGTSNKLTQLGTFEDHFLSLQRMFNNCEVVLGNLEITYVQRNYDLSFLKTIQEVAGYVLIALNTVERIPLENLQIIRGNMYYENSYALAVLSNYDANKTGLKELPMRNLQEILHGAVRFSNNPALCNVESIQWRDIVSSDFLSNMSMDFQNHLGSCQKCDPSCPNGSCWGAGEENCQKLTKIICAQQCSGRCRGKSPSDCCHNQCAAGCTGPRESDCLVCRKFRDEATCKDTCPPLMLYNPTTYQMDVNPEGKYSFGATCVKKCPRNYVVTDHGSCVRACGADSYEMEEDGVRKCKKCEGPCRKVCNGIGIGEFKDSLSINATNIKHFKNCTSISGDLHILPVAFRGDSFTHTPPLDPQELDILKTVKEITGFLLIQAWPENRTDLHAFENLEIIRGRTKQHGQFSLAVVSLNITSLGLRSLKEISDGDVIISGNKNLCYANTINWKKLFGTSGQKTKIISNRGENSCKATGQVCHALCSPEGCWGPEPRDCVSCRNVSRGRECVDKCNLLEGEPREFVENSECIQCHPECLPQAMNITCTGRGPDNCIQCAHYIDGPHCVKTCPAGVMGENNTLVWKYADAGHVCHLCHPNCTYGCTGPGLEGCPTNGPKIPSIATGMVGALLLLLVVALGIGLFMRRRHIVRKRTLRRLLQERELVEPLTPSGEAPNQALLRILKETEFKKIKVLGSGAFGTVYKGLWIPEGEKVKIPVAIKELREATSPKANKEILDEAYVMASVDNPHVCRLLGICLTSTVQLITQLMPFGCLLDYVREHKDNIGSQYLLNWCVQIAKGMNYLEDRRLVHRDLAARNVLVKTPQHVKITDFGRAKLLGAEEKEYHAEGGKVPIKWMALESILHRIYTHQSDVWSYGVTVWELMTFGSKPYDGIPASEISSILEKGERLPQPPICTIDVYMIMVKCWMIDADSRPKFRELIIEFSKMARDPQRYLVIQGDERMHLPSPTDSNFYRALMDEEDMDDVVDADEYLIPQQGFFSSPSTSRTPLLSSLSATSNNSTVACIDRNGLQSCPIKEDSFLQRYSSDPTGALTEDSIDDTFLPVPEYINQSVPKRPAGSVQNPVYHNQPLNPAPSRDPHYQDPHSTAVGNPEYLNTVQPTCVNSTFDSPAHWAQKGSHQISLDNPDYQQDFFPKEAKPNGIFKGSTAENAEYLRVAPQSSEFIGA
Chain of c-SRC (P12931 whole entry, looked up): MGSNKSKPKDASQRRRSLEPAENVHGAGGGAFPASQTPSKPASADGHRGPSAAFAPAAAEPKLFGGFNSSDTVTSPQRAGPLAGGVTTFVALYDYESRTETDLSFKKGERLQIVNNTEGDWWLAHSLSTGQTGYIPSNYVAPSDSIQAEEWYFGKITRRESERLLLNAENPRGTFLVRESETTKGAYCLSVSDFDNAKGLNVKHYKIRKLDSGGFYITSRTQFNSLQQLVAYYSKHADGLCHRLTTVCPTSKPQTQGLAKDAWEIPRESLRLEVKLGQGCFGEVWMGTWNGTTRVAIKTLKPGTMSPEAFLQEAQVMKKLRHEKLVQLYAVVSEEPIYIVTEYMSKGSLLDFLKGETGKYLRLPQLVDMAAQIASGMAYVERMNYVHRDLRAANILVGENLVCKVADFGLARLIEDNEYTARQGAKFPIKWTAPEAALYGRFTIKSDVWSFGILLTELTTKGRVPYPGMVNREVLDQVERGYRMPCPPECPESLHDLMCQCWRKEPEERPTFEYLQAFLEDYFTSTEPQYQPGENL

Structure (SMILES)	IC50 [1] [µM]	IC50 (EGFR L858R mutant type) [µM]	IC50 (EGFR wild type) [µM]	The kinase activity inhibitory rate (%) by the tested compounds at 10 μM c-SRC (c-SRC) [%]	The kinase activity inhibitory rate (%) by the tested compounds at 10 μM MET (MET) [%]	IC50 (VEGFR2; ATP 90 μM (Km)) [nM]	The kinase activity inhibitory rate (%) by the tested compounds at 10 μM BTK (BTK) [%]	The kinase activity inhibitory rate (%) by the tested compounds at 10 μM FLT3 (FLT3) [%]	The kinase activity inhibitory rate (%) by the tested compounds at 10 μM PDGFRα (PDGFRα) [%]	The kinase activity inhibitory rate (%) by the tested compounds at 10 μM ALK (ALK) [%]	The kinase activity inhibitory rate (%) by the tested compounds at 10 μM c-KIT (c-KIT) [%]	IC50 ([2]; 72 hours) [nM]	IC50 ([3]; 72 hours) [nM]	IC50 ([4]; 72 hours) [nM]	IC50 [5] [nM]	also measured
CC(C)n1c(Nc2ccccc2)nc2cnc(Nc3ccc(C(=O)NN4CCN(C)CC4)cc3)nc21 [Compound 8-1]	0.09	0.008	0.003	11	83	> 1000	46	85	43	23	26	1390	2	7600	105	
CC(C)n1c(Nc2ccc(F)c(Cl)c2)nc2cnc(Nc3ccc(C(=O)NN4CCN(C)CC4)cc3)nc21 [Compound 8-2]	< 0.001	0.001	0.002	99	100	> 1000	98	78	84	63	90	883	1.3	> 10000	558	
COc1cc(C(=O)NN2CCN(C)CC2)ccc1Nc1ncc2nc(Nc3ccccc3)n(C(C)C)c2n1 [Compound 8-7, 3-methoxy-4-(9-isopropyl-8-phenylamino-9H-purin-2-ylamino)-N-(4-methylpiperazin-1-yl)benzamide]																inhibition at 10 µM (c-SRC; read-out: The kinase activity inhibitory rate (%) by the tested compounds at 10 μM c-SRC): 28%; inhibition at 10 µM (MET; read-out: The kinase activity inhibitory rate (%) by the tested compounds at 10 μM MET): 0%; IC50 (VEGFR2): > 1000 nM; inhibition at 10 µM (BTK; read-out: The kinase activity inhibitory rate (%) by the tested compounds at 10 μM BTK): 12%; inhibition at 10 µM (FLT3; read-out: The kinase activity inhibitory rate (%) by the tested compounds at 10 μM FLT3): 0%; inhibition at 10 µM (PDGFRα; read-out: The kinase activity inhibitory rate (%) by the tested compounds at 10 μM PDGFRα): 9%; inhibition at 10 µM (ALK; read-out: The kinase activity inhibitory rate (%) by the tested compounds at 10 μM ALK): 61%; inhibition at 10 µM (c-KIT; read-out: The kinase activity inhibitory rate (%) by the tested compounds at 10 μM c-KIT): 8%; IC50 ([2]; Homo sapiens, NCI-H292, 72 hours): 138 nM; IC50 ([3]; Homo sapiens, HCC827, 72 hours): 7.5 nM; IC50 ([4]; Homo sapiens, NCI-H1975, 72 hours): > 10000 nM; IC50 ([5]; Homo sapiens): 12.1 nM
CC(C)n1c(Nc2ccccc2)nc2cnc(Nc3ccc(C(=O)NC4CCN(C)CC4)cc3)nc21 [Compounds 8-9]	0.006	0.0004	< 0.001	98	67	> 1000	88	76	88	36	96	160	4.2	> 10000	72.3	
CC(C)n1c(Nc2ccccc2)nc2cnc(Nc3ccc(N4CCN(C)CC4)cc3)nc21 [Compounds 8-10]	0.046	0.005	0.005	23	64	> 1000	32	87	87	45	3	10.5	0.1	2000	0.9	
CC(C)n1c(Nc2cccc(Br)c2)nc2cnc(Nc3ccc(N4CCN(C)CC4)cc3)nc21 [Compounds 8-11]	0.005	0.004	0.007	98	93	140	77	67	58	33	67	8.8	0.2	1730	0.2	
C#Cc1cccc(Nc2nc3cnc(Nc4ccc(N5CCN(C)CC5)cc4)nc3n2C(C)C)c1 [Compounds 8-12]	0.003	0.003	0.004	98	93	50	78	56	55	80	82	10.7	0.2	1930	0.2	
CC(C)n1c(Nc2ccc(F)c(Cl)c2)nc2cnc(Nc3ccc(N4CCN(C)CC4)cc3)nc21 [Compounds 8-13]	0.009	0.003	0.004	31	100	> 1000	45	89	90	78	87	6.1	0.2	2000	0.3	
CC(C)n1c(Nc2ccc(Br)cc2)nc2cnc(Nc3ccc(N4CCN(C)CC4)cc3)nc21 [Compounds 8-15]	0.015	0.001	0.003	97	45	4	95	90	94	40	94	220	0.2	> 10000	6.4	
